In patent US12102432B2, “Uses of transdermal glomerular filtration rate measurement in continuous renal replacement therapy” (MediBeacon Inc., priority 2018, dated 2024):
“And” between values parts separate entries of the source, which are not always exact repeats. Equal values may be shown once.

Experiments:
[1] = Meropenem infusion in porcine model before CRRT, blood concentration; format: in vivo, Swine; details: infused for 30 minutes
Description: Swine (3 male and 3 female, for both CVVH and CVVHD modalities) weighing 35-40 kg were used. In this model, a total functional nephrectomy was achieved by ligation of all renal arteries. Animals were inspected by professional veterinary staff within 48 hours of arrival. Any underlying infections or parasitism was treated based on veterinary recommendations. After taking a pre-MB-102 blood sample (baseline), a dose of 6 mg/kg of MB-102 was injected as a single bolus, followed by a 90 minute period of equilibration, to allow for MB-102 systemic redistribution (see FIGS. 7 and 13 for equilibration of fluorescent signal detected by the renal monitoring assembly). Thirty minutes after the MB-102 injection, Meropenum was infused for 30 minutes, which reached a peak concentration in blood ˜1 hr after the start of the infusion. […] Samples collected during these periods, along with the baseline (BSL) sample taken before the MB-102 dose, were assayed, and measured values were used in calculations to compare clearance rates with real-time MB-102 clearance measurements. […] A similar sample collection time-course was initiated at the high flow rate for both the low and high effluent flow rate data sets (seven sample time points at three circuit sites), allowing for similar comparisons of real-time and calculated clearance rates.

[2] = In vitro continuous hemodialysis (CVVHD) model, saturation coefficient; format: in vitro ADME, bovine; details: for Saturation coefficient (mean ± SD): CVVHD, blood flow 200 mL/min
Description: For CVVHD experiments, the CLTM was assessed using a previously validated in vitro CVVHD model as illustrated in FIG. 6. Commonly used effluent flow rates of 16, 33, 50, and 100 mL/min, and a blood flow rate of 200 mL/min were used. Effluent was prepared according to directions from the manufacturer by mixing sodium bicarbonate powder (NATURALYTE® 4000, Fresenius Medical Care, Waltham, Mass., USA) with distilled water in a 45:1 ratio. After adding MB-102 and urea to the blood, it was recirculated through the circuit for 5 min for uniform coating of the extracorporeal circuit. A single-pass mode of the CVVHD procedure with four different flow rates was run in random order for each hemodiafilter. Blood samples were collected from the pre- and post-filter ports, and spent effluent samples were taken from the effluent port 5 min after initiation of the CVVHD experiments at all four effluent flow rates. These experiments were conducted on 6 new hemodiafilters and CRRT tubing sets. Saturation coefficient (SA) and CLTM were calculated as follows:
[formula] CLdiff=(SA×Qd) Equation (6)
where SA is the saturation coefficient; CUF is the concentration in the effluent; Ca is the concentration of the solute in the pre-filter; CV is the concentration of the solute in the post-filter; CLdiff is the diffusion clearance for post-filter replacement; Qd is the effluent flow rate.
(§1) All blood samples were collected and centrifuged at 3000 rpm for 10 minutes. The plasma and effluent samples were transferred to cryovials in duplicate and stored at −80° C. until analysis. BUN concentrations were analyzed with Advia 1800 (Siemens Healthcare Diagnostic Inc., Tarrytown, N.Y., USA) having a lower limit of quantification of 5 mg/dL.
(§2) Similarly, six CVVH and CVVHD experiments with each hemodiafilter were used to detect a 25% difference in MB-102 CLTM between hemodiafilters. Assumptions used in these calculations included: a power of 90% and a standard deviation of 10% with a significance level of p<0.05. A two-tailed, unpaired t-test was used to compare differences between the two hemodiafilters, and the analysis of variance was used to compare different QUF and Qd within each hemodiafilter type.

[3] = In vitro continuous hemofiltration (CVVH) model, sieving coefficient; format: in vitro ADME, bovine; details: CVVH
Description: The procedure for the CVVH study was conducted using the model CVVH system illustrated in FIG. 5. The CLTM of urea and MB-102 were evaluated with different blood flow rates, ultrafiltration rate (Quf) and hemodiafilters (Table 1). In a closed-loop system, the formed effluent was returned to the blood as a post-filter replacement fluid downstream from the post-hemodiafilter blood sampling port. Pre- and post-hemodiafilter blood samples, and effluent samples were collected concurrently. Six experiments were conducted for each hemodiafilter, and new hemodiafilters and CRRT apparatus were used for each experiment. Sieving coefficient (SC) and CLTM were calculated as follows:
[formula] where Sc is the sieving coefficient; Cuf is the concentration in the effluent; Ca is the concentration of the solute in the pre-filter; and Cv is the concentration of the solute in the post-filter. CLconv=SC×QUF Equation (4) wherein CLconv is the convective clearance for the post-filter replacement; QUF is the ultrafiltration rate.
as §1, §2

[4] = Adsorption of MB-102 to CRRT apparatus, in vitro CVVH model; format: in vitro ADME, bovine; details: for mean percent change at the end of experiment: average of 6 experiments, 60 min; for percent change at the end of each experiment: single experiments 1-6, initial to 60 min, blood flow 200 mL/min, Quf 33 mL/min
Description: As an initial step, it was determined if the compound MB-102 adsorbs onto the hemodiafilter, tubing or other parts of the CRRT instrument. This study used a continuous venovenous hemofiltration (CVVH) configuration to assess MB-102 adsorptive clearance with a previously validated in vitro CVVH model using 1 L of pH regulated, citrate-anti-coagulated bovine blood. Using a Braun DIAPACT™ CRRT system, two different hemodiafilters were tested: the HF1400 and the M150 hemodiafilters. New bovine blood, hemodiafilters, and CRRT tubing sets were used in each experiment. The blood was continuously stirred and maintained at 37° C. in a water bath during all experiments. Reconstituted MB-102 was added to the blood to achieve a final concentration of ˜6.2 mg/L. Urea was used as a control and added to the blood to produce a blood urea nitrogen (BUN) concentration of ˜75 mg/dL. Blood flow rates of 200 mL/min with an ultrafiltration rate (Quf) of 33 mL/min were tested. This maximized MB-102 contact with the membranes, both on the blood side and via convection through the hemodiafilter membrane. A closed system was developed to maintain a constant volume in the extracorporeal system. The effluent was used as the replacement fluid which was returned to the blood as a post-filter replacement fluid to maintain a constant blood volume. The CRRT instrument was primed with normal saline before operation, consequently the urea and MB-102 dilution caused by the residual priming solution was accounted for. Blood samples were collected from the pre-filter port at 0 (baseline), 5 (at which time mixing was complete), 10, 20, 30, and 60 minutes. Each experiment was repeated six times with new hemodiafilters and tubing sets.
Equations used to calculate the dilution factor and adsorption are as follows:
[formula] wherein C0 is the concentration of MB-102 in the pre-filter at time=0 minutes; and C60 is the concentration of MB-102 in the pre-filter at time=60 minutes.
[formula] where [Urea0] is the urea concentration in the pre-filter at time=0 minutes; and [Urea60] is the urea concentration in the pre-filter at time=60 minutes.
as §1, with “mg/dL. […]” for “mg/dL.”

SMILES | time to peak concentration in blood after the start of the infusion [1] [h] | Saturation coefficient (mean ± SD) ([2]; HF1400, Qd 16.7 mL/min) | Saturation coefficient (mean ± SD) ([2]; HF1400, Qd 33.3 mL/min) | Saturation coefficient (mean ± SD) ([2]; HF1400, Qd 50 mL/min) | Saturation coefficient (mean ± SD) ([2]; HF1400, Qd 100 mL/min) | Saturation coefficient (mean ± SD) ([2]; M150, Qd 16.7 mL/min) | Saturation coefficient (mean ± SD) ([2]; M150, Qd 33.3 mL/min) | Saturation coefficient (mean ± SD) ([2]; M150, Qd 50 mL/min) | Saturation coefficient (mean ± SD) ([2]; M150, Qd 100 mL/min) | mean SA values ([2]; low effluent flow rates (16-50 mL/min)) | Mean sieving coefficient ([3]; HF1400, ultrafiltration rate 16.7 mL/min) | Mean sieving coefficient ([3]; HF1400, ultrafiltration rate 33.3 mL/min) | Mean sieving coefficient ([3]; HF1400, ultrafiltration rate 50 mL/min) | Mean sieving coefficient ([3]; M150, ultrafiltration rate 16.7 mL/min) | Mean sieving coefficient ([3]; M150, ultrafiltration rate 33.3 mL/min) | Mean sieving coefficient ([3]; M150, ultrafiltration rate 50 mL/min) | mean percent change at the end of experiment ([4]; HF1400 hemodiafilter) [%] | percent change at the end of each experiment ([4]; HF1400 hemodiafilter) | mean percent change at the end of experiment ([4]; M150 hemodiafilter) [%] | percent change at the end of each experiment ([4]; M150 hemodiafilter)
C[C@@H](O)[C@H]1C(=O)N2C(C(=O)O)=C(S[C@@H]3CN[C@H](C(=O)N(C)C)C3)[C@H](C)[C@H]12 [Meropenem, meropenem] | ~1 |  |  |  |  |  |  |  |  |  |  |  |  |  |  |  |  |  |  | 
NC(N)=O [Urea, reference compound] |  | 1.04 ± 0.07 | 1.19 ± 0.09 | 1.17 ± 0.11 | 1.17 ± 0.19 | 1.08 ± 0.08 | 1.16 ± 0.04 | 1.15 ± 0.15 | 1.35 ± 0.20 | approximately unity | 1.08 ± 0.03 | 1.09 ± 0.05 | 1.08 ± 0.07 | 1.00 ± 0.05 | 1.04 ± 0.10 | 1.05 ± 0.04 | 19.5 | 19.6% and 20.9% and 18.6% and 20.0% and 18.2% | 19.3 | 17.5% and 19.5% and 21.7% and 18.0% and 17.0% and 22.0%
